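Growth conditions: 96-well plates. Treatment: test compound, 48 hours, 5 concentrations. Analysis: linear interpolation between bracketing concentrations; unreached endpoints set to highest concentration. At the GI50, growth is halved. At the TGI there is no net growth.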
Columns and labels:
Experiment in all cases: DTP human tumour cell line panel, 48 h
[1] = system: KM12 colon
[2] = system: NCI-H460 lung
[3] = system: MOLT-4 leukemia
[4] = system: RXF 393 renal
[5] = system: TK-10 renal
[6] = system: IGROV1 ovarian
[7] = system: SNB-19 CNS
[8] = system: HCT-15 colon
[9] = system: SR leukemia
[10] = system: UACC-257 melanoma

SMILES	TGI [1] [µM]	TGI [2] [µM]	TGI [3] [µM]	TGI [4] [µM]	TGI [5] [µM]	TGI [6] [µM]	TGI [7] [µM]	TGI [8] [µM]	TGI [9] [µM]	TGI [10] [µM]	GI50 [1] [µM]	GI50 [2] [µM]	GI50 [3] [µM]	GI50 [4] [µM]	GI50 [5] [µM]	GI50 [6] [µM]	GI50 [7] [µM]	GI50 [8] [µM]	GI50 [9] [µM]	GI50 [10] [µM]
NS(=O)(=O)c1ccc(N=C2C(=O)Nc3ccccc32)cc1	> 100	> 100	> 100	> 100	> 100	> 100	> 100	> 100	> 100	> 100	–	–	–	–	–	–	–	–	–	–
NCCCNc1nc2ccc(Cl)cc2c2c(=O)c3cc(F)ccc3sc12	3.43	3.46	3.95	12.3	11.1	5.1	25.4	3.48	5.37	35.3	1.77	1.73	1.87	2.95	3.08	1.91	9.43	1.71	2.1	15.7
NC(=S)N/N=C(\CCC(=O)Nc1ccccc1[N+](=O)[O-])CC(=O)c1ccco1	> 100	> 100	> 100	> 100	> 100	> 100	> 100	> 100	> 100	> 100	–	–	–	–	–	–	–	–	–	–
C=C(CN1CCN(c2ccccc2C(F)(F)F)CC1)c1ccc(C(=O)Nc2ccccc2N)cc1	11.7	43.6	2.55	4.78	> 67.7	> 100	> 100	> 100	5.95	> 62.6	2.04	5.59	0.125	1.67	4.63	6.03	24.4	4.88	2.36	4.66
CCc1cccc(CC)c1NC(=O)CC1SC(N)=NC1=O (centres undefined)	> 100	> 100	> 100	> 100	> 100	> 100	> 100	> 100	> 100	> 100	–	–	–	–	–	–	–	–	–	–
O=C(Cc1ccccc1)NN1C(=O)C(Cl)C1c1cccc([N+](=O)[O-])c1 (centres undefined)	> 100	> 100	45	93	> 100	19.3	> 100	> 100	22.1	> 100	–	–	–	–	–	–	–	–	–	–
CC(=O)OCC1OC([Se-])C(OC(C)=O)C(OC(C)=O)C1OC(C)=O.N#CCC[PH+](CCC#N)CCC#N.[Au+] (centres undefined)	> 74.5	29.6	14.1	> 100	46.9	> 81.6	> 77.9	23.4	13.7	13.6	10.3	4.95	2.75	3.14	14.2	24.5	10.9	3.92	3.06	5.93
O=C(c1cccs1)c1nc2cc(Cl)ccc2[n+]([O-])c1C(F)(F)F	> 100	> 100	> 100	> 100	> 100	> 100	> 100	> 100	> 100	> 100	85.4	91.9	70.1	44.3	> 100	> 100	> 100	> 100	35.4	49.9
CC(=O)CC(=O)NC=O	> 100	> 100	> 100	> 100	> 100	> 100	> 100	> 100	> 100	> 100	–	–	–	–	–	–	–	–	–	–
O=C(N/C=C/C=C/Sc1ccccc1)OCc1ccccc1	36.1	57	> 100	35.6	64.7	42.1	> 100	36.2	> 100	39.5	–	–	–	–	–	–	–	–	–	–
CCCOc1ccc(/C=N/Nc2cc(C)nc3ccc(Cl)cc23)cc1	3.35	4.03	3.77	2.94	3.47	3.63	3.54	2.94	3.75	3.32	1.8	2.04	1.81	1.55	2.04	1.92	1.95	1.52	1.17	1.79
O=Cc1ccc(-c2ccc(-c3ccc(C=O)o3)[se]2)o1	> 100	> 100	> 100	> 100	> 100	> 100	> 100	> 100	> 100	> 100	> 100	> 100	> 100	55.8	7.73	> 65.9	> 100	> 80	> 100	> 100
FC(F)(F)c1ccc(-c2ncc(-c3ccc(C(F)(F)F)cc3)c(NCc3cc(C(F)(F)F)cc(C(F)(F)F)c3)n2)cc1	63.2	79.4	71.8	74.9	> 100	> 100	> 100	> 100	> 100	44.4	4.3	3.72	4.35	4.73	7.51	9.02	3.49	3.74	5.07	5.29
NC(=N\N=C/c1ccc(Cl)cc1Cl)/C(N)=N\N=C/c1ccc(Cl)cc1Cl	> 100	> 100	> 100	63.9	16.7	> 100	> 100	> 100	> 100	> 100	> 100	0.795	> 100	12.8	1.25	4	26.8	> 100	> 100	> 100
FC(F)(F)c1cc(-c2ncn(/C=C\c3nnco3)n2)cc(C(F)(F)F)c1	> 32.7	–	0.938	0.11	12.5	> 100	> 100	> 33.4	12.6	> 66.4	0.346	0.0384	0.0284	0.0216	0.0803	0.676	0.126	0.133	0.0246	0.0673
